Data on 16 compounds can be found in US12448392B2, “Spiropiperidine derivatives” (89BIO LTD, priority 2016, dated 2025).

As usually defined, the IC50 is the concentration needed to halve the response being measured.

T1 sequence (P49327 whole entry): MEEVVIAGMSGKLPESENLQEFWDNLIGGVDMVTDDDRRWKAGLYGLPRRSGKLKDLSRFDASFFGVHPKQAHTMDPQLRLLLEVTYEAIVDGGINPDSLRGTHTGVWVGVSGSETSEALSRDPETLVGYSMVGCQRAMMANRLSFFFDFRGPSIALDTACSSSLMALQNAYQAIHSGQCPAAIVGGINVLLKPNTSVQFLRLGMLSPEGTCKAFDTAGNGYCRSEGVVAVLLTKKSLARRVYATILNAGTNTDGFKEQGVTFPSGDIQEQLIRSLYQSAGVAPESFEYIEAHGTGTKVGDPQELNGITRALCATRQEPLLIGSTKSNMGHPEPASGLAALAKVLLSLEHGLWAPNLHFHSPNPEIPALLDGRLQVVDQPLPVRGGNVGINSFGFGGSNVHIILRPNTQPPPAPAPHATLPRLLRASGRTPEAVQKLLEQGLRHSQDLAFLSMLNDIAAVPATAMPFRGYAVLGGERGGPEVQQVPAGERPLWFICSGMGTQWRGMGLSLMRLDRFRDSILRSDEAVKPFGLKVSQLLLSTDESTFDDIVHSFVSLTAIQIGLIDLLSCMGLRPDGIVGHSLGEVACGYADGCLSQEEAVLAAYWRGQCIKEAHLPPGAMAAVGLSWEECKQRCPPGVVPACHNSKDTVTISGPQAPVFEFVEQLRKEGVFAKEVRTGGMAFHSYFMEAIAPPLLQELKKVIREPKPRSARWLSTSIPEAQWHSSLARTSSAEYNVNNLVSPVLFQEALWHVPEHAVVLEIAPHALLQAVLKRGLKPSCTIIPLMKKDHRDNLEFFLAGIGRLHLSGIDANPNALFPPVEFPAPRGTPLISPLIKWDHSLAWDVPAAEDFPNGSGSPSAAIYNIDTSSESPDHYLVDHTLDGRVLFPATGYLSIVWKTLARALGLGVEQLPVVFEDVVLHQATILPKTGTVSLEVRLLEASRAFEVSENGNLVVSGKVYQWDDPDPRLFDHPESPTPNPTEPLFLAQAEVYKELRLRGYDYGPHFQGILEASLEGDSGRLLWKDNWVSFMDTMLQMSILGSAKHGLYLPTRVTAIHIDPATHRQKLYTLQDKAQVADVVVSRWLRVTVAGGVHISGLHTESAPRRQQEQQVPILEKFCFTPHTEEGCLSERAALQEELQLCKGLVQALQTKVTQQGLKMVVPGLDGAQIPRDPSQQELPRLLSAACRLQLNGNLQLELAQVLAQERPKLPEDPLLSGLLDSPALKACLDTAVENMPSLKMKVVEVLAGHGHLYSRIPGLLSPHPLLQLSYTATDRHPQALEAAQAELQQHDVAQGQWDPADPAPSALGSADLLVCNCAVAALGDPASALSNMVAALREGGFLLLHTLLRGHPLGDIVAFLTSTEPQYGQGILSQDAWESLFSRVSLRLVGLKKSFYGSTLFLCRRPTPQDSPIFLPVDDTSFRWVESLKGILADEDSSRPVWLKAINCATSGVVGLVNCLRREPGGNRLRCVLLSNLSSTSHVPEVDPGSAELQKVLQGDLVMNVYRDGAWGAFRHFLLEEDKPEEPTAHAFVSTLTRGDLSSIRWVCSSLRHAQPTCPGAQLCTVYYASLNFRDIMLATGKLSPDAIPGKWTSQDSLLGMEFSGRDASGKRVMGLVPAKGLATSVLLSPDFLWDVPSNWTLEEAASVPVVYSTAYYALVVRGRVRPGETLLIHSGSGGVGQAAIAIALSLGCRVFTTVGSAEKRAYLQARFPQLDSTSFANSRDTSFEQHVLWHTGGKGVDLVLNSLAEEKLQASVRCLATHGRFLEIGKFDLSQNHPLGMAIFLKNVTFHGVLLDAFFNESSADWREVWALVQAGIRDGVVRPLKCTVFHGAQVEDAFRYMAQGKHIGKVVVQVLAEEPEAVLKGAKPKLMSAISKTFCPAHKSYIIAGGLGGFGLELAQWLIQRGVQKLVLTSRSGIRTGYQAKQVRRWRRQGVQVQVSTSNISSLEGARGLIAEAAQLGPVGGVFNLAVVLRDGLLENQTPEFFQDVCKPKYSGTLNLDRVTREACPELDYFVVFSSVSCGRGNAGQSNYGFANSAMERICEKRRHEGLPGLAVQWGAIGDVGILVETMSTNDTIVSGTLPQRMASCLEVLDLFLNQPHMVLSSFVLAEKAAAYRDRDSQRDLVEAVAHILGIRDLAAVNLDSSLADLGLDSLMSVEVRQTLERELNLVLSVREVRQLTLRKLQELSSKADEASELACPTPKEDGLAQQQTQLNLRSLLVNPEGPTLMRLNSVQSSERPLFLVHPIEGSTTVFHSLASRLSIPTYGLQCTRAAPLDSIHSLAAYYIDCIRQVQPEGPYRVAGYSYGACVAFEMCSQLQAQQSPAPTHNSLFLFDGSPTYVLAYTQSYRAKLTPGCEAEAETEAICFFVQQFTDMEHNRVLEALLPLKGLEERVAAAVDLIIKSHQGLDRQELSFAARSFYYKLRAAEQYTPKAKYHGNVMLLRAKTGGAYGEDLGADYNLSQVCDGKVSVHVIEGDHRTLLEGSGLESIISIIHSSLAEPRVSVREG

One experiment addresses T1, recombinant human baculovirus-expressed GST-tagged FASN (Homo sapiens, UniProt P49327).
T1 construct: GST
Description: biochemical.
Conditions: not given
Consider `Cn1cnc2cc(-c3ccc4c(c3)COC3(CCN(C(N)=O)CC3)O4)ccc21` [Example 82, 6-(1-Methylbenzimidazol-5-yl)spiro[4H-1,3-benzodioxine-2,4′-piperidine]-1′-carboxamide], for which the IC50 fell in the range of 100 to 999 nM. The same measure, in the same setting: in the case of `CC(C)(C)OC(=O)N1CCC2(CC1)OCc1cc(-c3cnc4sccc4c3)ccc1O2` [Example 84, tert-Butyl 6-thieno[2,3-b]pyridin-5-ylspiro[4H-1,3-benzodioxine-2,4′-piperidine]-1′-carboxylate] it was 1000 to 10000 nM. Still for that read-out and setting: with `NC(=O)N1CCC2(CC1)OCc1cc(-c3cnc4sccc4c3)ccc1O2` [Example 89, 6-thieno[2,3-b]pyridin-5-ylspiro[4H-1,3-benzodioxine-2,4′-piperidine]-1′-carboxamide] the figure was 1000 to 10000 nM.

The experiment is the same for the next values; noted with them: 5 nM FASN, 150 μM NADPH, 10 μM acetyl-CoA, 25 μM malonyl-CoA, 90 minutes incubation; read-out: IC50 data for Compounds of Formula I, Activity.
Regarding `Cn1cnc2cc(-c3ccc4c(c3)CCC3(CCN(C(N)=O)CC3)O4)ccc21` [Example 81, 6-(1-Methylbenzimidazol-5-yl)spiro[chromane-2,4′-piperidine]-1′-carboxamide], the IC50 lay within 100 to 999 nM. As for `NC(=O)N1CCC2(CCc3cc(-c4ccc5scnc5c4)ccc3O2)CC1` [Example 83, 6-(1,3-Benzothiazol-5-yl)spiro[chromane-2,4′-piperidine]-1′-carboxamide], the IC50 was 100 to 999 nM. Same read-out and setting: in the case of `NC(=O)N1CCC2(CCc3cc(-c4cnc5sccc5c4)ccc3O2)CC1` [Example 85, 6-Thieno[2,3-b]pyridin-5-ylspiro[chromane-2,4′-piperidine]-1′-carboxamide] it was 1000 to 10000 nM; in that of `NC(=O)N1CCC2(CCc3cc(-c4ccc5ocnc5c4)ccc3O2)CC1` [Example 86, 6-(1,3-Benzoxazol-5-yl)spiro[chromane-2,4′-piperidine]-1′-carboxamide], 1000 to 10000 nM; in that of `CCNC(=O)N1CCC2(CCc3cc(-c4ccc5cccnc5c4C)ccc3O2)CC1` [Example 97, N-Ethyl-6-(8-methyl-7-quinolyl)spiro[chromane-2,4′-piperidine]-1′-carboxamide], 1 to 99 nM. For `Cc1c(-c2ccc3c(c2)CCC2(CCN(C(=O)NC(C)C)CC2)O3)ccc2cccnc12` [Example 98, N-Isopropyl-6-(8-methyl-7-quinolyl)spiro[chromane-2,4′-piperidine]-1′-carboxamide], the IC50 fell in the range of 100 to 999 nM. As to `CCCNC(=O)N1CCC2(CCc3cc(-c4ccc5cccnc5c4C)ccc3O2)CC1` [Example 99, 6-(8-Methyl-7-quinolyl)-N-propyl-spiro[chromane-2,4′-piperidine]-1′-carboxamide], the IC50 lay in the range of 1 to 99 nM.

As to `Cc1c(-c2ccc3c(c2)CCC2(CCN(C(=O)NCC4CC4)CC2)O3)ccc2cccnc12` [Example 100, N-(Cyclopropylmethyl)-6-(8-methyl-7-quinolyl)spiro[chromane-2,4′-piperidine]-1′-carboxamide], the IC50 was in the range of 1 to 99 nM.

As for `CCONC(=O)N1CCC2(CCc3cc(-c4ccc5cccnc5c4C)ccc3O2)CC1` [Example 101, N-Ethoxy-6-(8-methyl-7-quinolyl)spiro[chromane-2,4′-piperidine]-1′-carboxamide], the IC50 fell in the range of 1 to 99 nM. For `CCCONC(=O)N1CCC2(CCc3cc(-c4ccc5cccnc5c4C)ccc3O2)CC1` [Example 102, 6-(8-Methyl-7-quinolyl)-N-propoxy-spiro[chromane-2,4′-piperidine]-1′-carboxamide], the IC50 lay in the range of 1 to 99 nM. Take `Cc1c(-c2ccc3c(c2)CCC2(CCN(C(=O)NOC(C)C)CC2)O3)ccc2cccnc12` [Example 103, N-Isopropoxy-6-(8-methyl-7-quinolyl)spiro[chromane-2,4′-piperidine]-1′-carboxamide]: the IC50 is 1 to 99 nM.

Take `Cc1c(-c2ccc3c(c2)CCC2(CCN(C(=O)NOCC(C)C)CC2)O3)ccc2cccnc12` [Example 104, N-Isobutoxy-6-(8-methyl-7-quinolyl)spiro[chromane-2,4′-piperidine]-1′-carboxamide]: the IC50 lay in the range of 100 to 999 nM. As for `Cc1c(-c2ccc3c(c2)CCC2(CCN(C(=O)NO)CC2)O3)ccc2cccnc12` [Example 105, 6-(8-methyl-7-quinolyl)spiro[chromane-2,4′-piperidine]-1′-carbohydroxamic acid], the IC50 is 100 to 999 nM.
